Results on 21 compounds are retold here after patent US20070244184A1, “GLYCOSIDASE INHIBITORS AND METHODS OF SYNTHESIZING SAME” (SIMON FRASER UNIVERSITY, priority 2006, published 2007).

Structures can show the parent of a compound that is named as a salt. Where two headings read alike, the source gives them in different places.

Series [1] has as its target T1, recombinant human maltase glucoamylase (MGA) (Homo sapiens, UniProt O43451). Briefly: Recombinant MGA inhibition, maltose substrate, glucose oxidase assay (Ki). The series is classed as biochemical. Particulars: for Ki: maltose substrate, read-out: Ki against recombinant human MGA. As for the experimental part:
(§1) Enzyme Activity Assays: Measurement of dGMII inhibition was carried out as outlined in the literature.^12 Analysis of recombinant MGA inhibition and determination of the kinetic constants for competitive inhibition have been described.^60 Briefly, analysis of MGA inhibition was performed using maltose as the substrate, and measuring the release of glucose. Reactions were carried out in 100 mM MES buffer pH 6.5 at 37° C. The reaction was stopped by boiling for 3 min. 20 μL aliquots were taken and added to 100 μL of glucose oxidase assay reagent (Sigma) in a 96-well plate. Reactions were developed for 1 hour and absorbance was measured at 450 nm to determine the amount of glucose produced by MGA activity in the reaction. All reactions were performed in triplicate and absorbance measurements were averaged to give a final result.
Enzyme Kinetics: Kinetic parameters of recombinant MGA were determined using the glucose oxidase assay to follow the production of glucose upon addition of enzyme (15 nM) at increasing maltose concentrations (from 2.5 mM to 30 mM) with a reaction time of 15 minutes. The Ki value was determined by measuring the rate of maltose hydrolysis by MGA at varying inhibitor concentrations. Data were plotted in Lineweaver-Burk plots (1/rate vs. 1/[substrate]) and the Ki value was determined by the equation Ki=Km[I]/(Vmax)s−Km, where “s” is the slope of the line. The Ki reported was an average of the Ki values obtained from each of the different inhibitor concentrations.
Enzyme Activity Assay. Analysis of MGA inhibition was performed using maltose as the substrate, and measuring the release of glucose. Reactions were carried out in 100 mM MES buffer pH 6.5 at 37° C. for 15 min. The reaction was stopped by boiling for 3 min. 20 μL aliquots were taken and added to 100 μL of glucose oxidase assay reagent (Sigma) in a 96-well plate. Reactions were allowed to proceed for 1 h and absorbance was measured at 450 nm to determine the amount of glucose produced by MGA activity in the reaction. One unit of activity is defined as the hydrolysis of one […] of maltose per minute. All reactions were performed in triplicate and absorbance measurements were averaged to give a final result.
Enzyme Kinetics. Kinetic parameters of recombinant MGA were determined using the glucose oxidase assay to follow the production of glucose upon addition of enzyme (15 nM) at increasing maltose concentrations (from 1 mM-3.5 mM) with a reaction time of 15 min. The program GraFit 4.0.14 was used to fit the data to the Michaelis-Menten equation and estimate the kinetic parameters, Km and Vmax, of the enzyme. Ki values for each inhibitor were determined by measuring the rate of maltose hydrolysis by MGA at varying inhibitor concentrations. Data were plotted in Lineweaver-Burk plots (1/rate vs. 1/[substrate]) and Ki values were determined by the equation Ki=Km[I]/(Vmax)m−Km, where “m” is the slope of the line. The Ki reported for each inhibitor was estimated by averaging the Ki values obtained from each of the different inhibitor concentrations.

In series [2] the target is T2, Drosophila melanogaster Golgi α-mannosidase II (dGMII) (Drosophila melanogaster, UniProt Q24451).
T2 sequence (Q24451 1-1108): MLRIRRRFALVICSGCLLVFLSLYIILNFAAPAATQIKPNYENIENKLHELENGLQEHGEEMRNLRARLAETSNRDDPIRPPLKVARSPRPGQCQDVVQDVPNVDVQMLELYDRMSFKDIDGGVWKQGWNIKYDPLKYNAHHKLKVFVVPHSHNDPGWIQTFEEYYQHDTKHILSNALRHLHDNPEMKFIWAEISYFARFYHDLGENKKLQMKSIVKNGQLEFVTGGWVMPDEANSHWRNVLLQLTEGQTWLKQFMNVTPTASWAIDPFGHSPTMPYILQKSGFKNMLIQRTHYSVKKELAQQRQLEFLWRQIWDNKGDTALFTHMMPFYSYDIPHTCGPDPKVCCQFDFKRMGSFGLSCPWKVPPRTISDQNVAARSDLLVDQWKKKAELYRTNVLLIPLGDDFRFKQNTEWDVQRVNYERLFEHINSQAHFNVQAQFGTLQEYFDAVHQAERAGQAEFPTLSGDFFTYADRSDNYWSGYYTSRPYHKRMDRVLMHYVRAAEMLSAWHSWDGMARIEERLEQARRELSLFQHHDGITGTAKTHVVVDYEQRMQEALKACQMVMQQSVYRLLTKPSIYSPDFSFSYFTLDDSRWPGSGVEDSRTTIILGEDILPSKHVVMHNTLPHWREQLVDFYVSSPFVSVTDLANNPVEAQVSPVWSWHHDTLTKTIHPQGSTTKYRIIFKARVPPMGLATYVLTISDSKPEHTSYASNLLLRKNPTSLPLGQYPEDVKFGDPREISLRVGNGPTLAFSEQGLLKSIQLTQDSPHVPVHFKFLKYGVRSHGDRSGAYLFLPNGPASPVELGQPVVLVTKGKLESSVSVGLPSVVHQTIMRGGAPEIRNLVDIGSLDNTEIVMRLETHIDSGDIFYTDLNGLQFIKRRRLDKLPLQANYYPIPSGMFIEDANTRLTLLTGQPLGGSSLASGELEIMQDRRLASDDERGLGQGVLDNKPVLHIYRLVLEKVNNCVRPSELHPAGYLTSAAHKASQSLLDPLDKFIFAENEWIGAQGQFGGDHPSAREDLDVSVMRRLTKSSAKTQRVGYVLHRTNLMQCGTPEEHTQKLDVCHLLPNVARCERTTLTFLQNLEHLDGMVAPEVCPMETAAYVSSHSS
Briefly: dGMII inhibition. The series is classed as biochemical. How it is done: as §1

The target of series [3] is T1, recombinant human maltase glucoamylase (MGA). Briefly: MGA inhibition, p-nitrophenyl α-D-glucopyranoside substrate (IC50). The series is classed as biochemical. To be noted: p-nitrophenyl α-D-glucopyranoside as substrate. As for the experimental part:
The assays were carried out in 96-well microtiter plates containing 100 mM MES buffer pH 6.5, inhibitor and pNP-glucose as substrate, with a final volume of 50 μL. Reactions were incubated at 37° C. for 35 min and terminated by addition of 50 μL of 0.5 M sodium carbonate. […] All reactions were performed in triplicate and absorbance measurements were averaged to give a final result.

Series [4] shares this target. Particulars: cited from earlier work.
Series [5] addresses T2, Drosophila melanogaster Golgi α-mannosidase II (dGMII). To be noted: read-out: IC50 against dGMII, cited from earlier work.

What is called melting point is the temperature, or range, at which the solid turns liquid. For orientation: Ki means the equilibrium dissociation constant of an inhibitor or competing ligand from its target. By IC50 is commonly meant the concentration that inhibits the measured activity by half.

T1 sequence (O43451 87-954 limits assumed): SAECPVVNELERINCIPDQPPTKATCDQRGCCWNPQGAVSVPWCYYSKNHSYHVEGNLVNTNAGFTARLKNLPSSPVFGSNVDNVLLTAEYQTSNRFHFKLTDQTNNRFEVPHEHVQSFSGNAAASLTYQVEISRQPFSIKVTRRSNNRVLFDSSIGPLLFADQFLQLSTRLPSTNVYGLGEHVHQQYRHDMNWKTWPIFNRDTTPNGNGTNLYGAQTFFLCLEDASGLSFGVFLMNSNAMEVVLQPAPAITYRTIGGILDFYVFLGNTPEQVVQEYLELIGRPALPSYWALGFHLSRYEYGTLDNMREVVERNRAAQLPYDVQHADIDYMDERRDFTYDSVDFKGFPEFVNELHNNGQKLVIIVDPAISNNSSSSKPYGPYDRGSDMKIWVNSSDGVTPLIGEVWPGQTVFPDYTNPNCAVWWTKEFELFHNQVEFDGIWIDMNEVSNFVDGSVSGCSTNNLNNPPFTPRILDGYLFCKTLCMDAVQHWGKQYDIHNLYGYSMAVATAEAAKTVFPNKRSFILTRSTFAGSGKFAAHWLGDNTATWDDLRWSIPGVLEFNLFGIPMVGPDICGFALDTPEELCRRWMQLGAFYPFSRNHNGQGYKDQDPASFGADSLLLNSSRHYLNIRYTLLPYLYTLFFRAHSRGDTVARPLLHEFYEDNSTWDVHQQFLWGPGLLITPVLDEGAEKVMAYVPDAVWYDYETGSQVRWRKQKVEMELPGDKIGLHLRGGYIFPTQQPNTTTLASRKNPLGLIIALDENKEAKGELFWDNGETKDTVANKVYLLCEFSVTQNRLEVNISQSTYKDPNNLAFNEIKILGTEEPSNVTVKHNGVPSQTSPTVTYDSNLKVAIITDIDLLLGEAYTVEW

As to `CCCCCCCCCCCCCC[S+]1CC(O)C(O)C1CO` (as salt: chloride) [Compound 48, 1,4-Dideoxy-1,4-[(1-tetradecyl)-(R)-episulfoniumylidene]-D-arabinitol chloride], the melting point lay in the range of 86 to 88 °C. Same read-out and setting: to `CCCCCCCCCCCCCCCCCC[S+]1CC(O)C(O)C1CO` (as salt: chloride) [Compound 49, 1,4-Dideoxy-1,4-[(1-octadecyl)-(R)-episulfoniumylidene]-D-arabiiiitol chloride] belongs 95 to 97 °C; to `CCCCCCCCCCCCCC[S+]1CC(O)C(O)C1CO` (as salt: triflate) [Compound 44, 1,4-Dideoxy-1,4-[(1-tetradecyl)-(R)-episulfoniumylidene]-D-arabinitol triflate], 69 to 71 °C. With `O=C([O-])[C@H](O)[C@H](O)[C@H](O)C[S@@+]1C[C@H](O)[C@@H](O)[C@@H]1CO` [Compound 4, 1,4-Dideoxy-1,4-[[(2′S,3′S,4′R)-2′,3′,4′-trihydroxy-4′-carboxybutyl]-episulfoniumyl-idene]-L-arabinitol inner salt], the “inhibitory activity against recombinant human MGA (in words)” value in series [1] is “Only compound 5, with the D-arabinitol configuration in the heterocyclic ring displayed by salacinol 1, was found to be active”. Consider `O=C([O-])C(O)C(O)C(O)C[S+]1CC(O)C(O)C1CO` [Compound 5, 1,4-Dideoxy-1,4-[[(2′S,3′S,4′R)-2′,3′,4′-trihydroxy-4′-carboxybutyl]-episulfoniumyl-idene]-D-arabinitol inner salt], for which the inhibition constant (Ki) in series [1] is 10 µM. Turning to `O=C(O)[C@@H](O)[C@@H](O)[C@H](O)[C@@H](O)CN1C[C@H](O)[C@@H](O)[C@@H]1CO` [Compound 20, 6′-((1,4-Dideoxy-1,4-imino-L-arabinitol)-4-N-ammonium)-6′-deoxy-L-gulonate], the “inhibitory activity against recombinant human MGA (in words)” value in series [1] is listed as “not active on either enzyme”. The “activity against dGMII (in words)” value in series [2] was “not active on either enzyme”. In the case of `O=C(O)[C@@H](O)[C@@H](O)[C@H](O)[C@@H](O)CN1C[C@@H](O)[C@H](O)[C@H]1CO` [Compound 21, 6′-((1,4-Dideoxy-1,4-imino-D-arabinitol)-4-N-ammonium)-6′-deoxy-L-gulonic acid hydro-chloride], the Ki in series [1] was 21 µM. Further, the “improvement of dGMII inhibition over salacinol, kotalanol and other analogues” value in series [2] (0.3 mM vs approximately 7.5 mM) is on record as 25 fold. In addition, the IC50 in series [2] (read-out: IC50 against dGMII) was 300 µM. With `CCCCCCCCCCCCCC[S+]1CC(O)C(O)C1CO` [Compound 44, 1,4-Dideoxy-1,4-[(1-tetradecyl)-(R)-episulfoniumylidene]-D-arabinitol triflate], in series [3], the IC50 stood at 25 µM. Same read-out and setting: next, `CCCCCC[S+]1CC(O)C(O)C1CO` [Compound 46, 1,4-Dideoxy-1,4-[(1-hexyl)-(R)-episulfoniumylidene]-D-arabinitol chloride]: 50 µM. Take `CCCCCCCCCCCCCC[S+]1CC(O)C(O)C1CO` [Compound 48, 1,4-Dideoxy-1,4-[(1-tetradecyl)-(R)-episulfoniumylidene]-D-arabinitol chloride]: the IC50 in series [3] was 30 µM. Still for that read-out and setting: next, `CCCCCCCCCCCCCCCCCC[S+]1CC(O)C(O)C1CO` [Compound 49, 1,4-Dideoxy-1,4-[(1-octadecyl)-(R)-episulfoniumylidene]-D-arabiiiitol chloride]: 15 µM. Same read-out and setting: next, `CC(C)CC[S+]1CC(O)C(O)C1CO` [Compound 50, 1,4-Dideoxy-1,4-[[1-(3-methyl)-butyl]-(R)-episulfoniumylidene]-D-arabinitol chloride]: 50 µM. For the compound `O=S(=O)([O-])OC(CO)C(O)C(O)C[S+]1CC(O)C(O)C1CO` (stereo not shown) [Compound 78], the inhibition constant (Ki) in series [1] was 20 ± 4 µM.

As to `O=S(=O)([O-])OC(CO)C(O)C(O)C[Se+]1CC(O)C(O)C1CO` [Compound 79, 1,4-Dideoxy-1,4[[2S,3S,4S]-2,3,5-trihydroxy-4-(sulfooxy)-pentyl]-epi-selenoniumylidene]-D-arabinitol Inner salt], the inhibitory constant (Ki) in series [1] stood at 53 ± 5 µM. As for `O=S(=O)([O-])O[C@H](CO)[C@H](O)[C@@H](O)C[S+]1C[C@@H](O)[C@H](O)[C@H]1CO` (stereo partly drawn) [Compound 80, 1,4-Dideoxy-1,4[[2R,3R,4R]-2,3,5-trihydroxy-4-(sulfooxy)-pentyl]-epi-sulfoniumylidene]-D-arabinitol Inner salt], the “inhibitory activity against recombinant human MGA (in words)” value in series [1] was “not active”. Still for that read-out and setting: to `O=S(=O)([O-])OC(CO)C(O)C(O)C[Se+]1CC(O)C(O)C1CO` [Compound 81, 1,4-Dideoxy-1,4[[2R,3R,4R]-2,3,5-trihydroxy-4-(sulfooxy)-pentyl]-epi-selenoniumylidene]-D-arabinitol Inner salt] belongs “not active”. Regarding `O=S(=O)([O-])O[C@@H]([C@H](O)C[S@+]1C[C@@H](O)[C@H](O)[C@H]1CO)[C@@H](O)CO` [Compound 89], the “inhibitory activity against MGA (in words)” value in series [4] was “inactive”.

Consider `O=S(=O)([O-])OC(CO)C(O)C[Se+]1CC(O)C(O)C1CO` (stereo not shown) [blintol], for which the IC50 in series [5] is around 7500 µM. In series [4] (read-out: Ki against MGA, reference compounds, unit inferred), the inhibition constant Ki is 0.49 ± 0.05 µM. For `O=S(=O)([O-])OC(C(O)C[S+]1CC(O)C(O)C1CO)C(O)C(O)C(O)CO` (stereo not shown) [kotalanol], the half-maximal inhibitory concentration (IC50) in series [5] was around 7500 µM. Take `O=S(=O)([O-])OC(CO)C(O)C[S+]1CC(O)C(O)C1CO` (stereo not shown) [salacinol]: in series [5], the IC50 was around 7500 µM. `O[C@H]1[C@H]2[C@H](O)CCCN2C[C@H]1O` [swainsonine]: the IC50 in series [5] (swainsonine, literature value) is 0.02 to 0.04 µM.
